The target in test [1] is T1, prolyl endopeptidase (Rattus norvegicus, UniProt O70196).
T1 construct: prolyl endopeptidase extracted from rat brain; from tissue; host or cells: rat brain
The experiment in a line: Prolyl Endopeptidase-Inhibitory Activity. Type of test: biochemical. As to conditions: for IC50: prolyl endopeptidase extracted from rat brain, pH 7.0, 30° C., preincubated 30 minutes, 1 hour; for inhibition at 1 µM: 1 × 10^-6 M. How it is done: A mixture of a 0.1M potassium sodium phosphate buffer (pH 7.0) (2675 μl), a solution of the compounds of the present invention in a 0.1M potassium sodium phosphate buffer (pH 7.0) (100 μl) and a solution of prolyl endopeptidase extracted from rat brain in a 25 mM sodium phosphate buffer (100 μl) [123 unit/1, pH 6.8, containing 1 mM dithiothreitol and 0.5 mM EDTA, prepared by the method described in J. Neurochem., 35, 527 (1980)] was preincubated at 30° C. for 30 minutes. Thereto was added a 0.2 mM solution of 7-(N-succinyl-glycyl-prolyl)-4-methylcoumarinamide (Peptide Institute, INC.) in a 0.1M potassium sodium phosphate buffer (pH 7.0) (125 μl), and the mixture was incubated at 30° C. for 1 hour. The reaction mixture was immersed in ice (0° C.) to terminate the reaction, and the fluorescence (a1) was determined ten minutes later (excitation at 370 nm and emission at 440 nm). Concurrently, there were conducted the experiment wherein, in the above system, the prolyl endopeptidase solution was substituted for a 25 mM sodium phosphate buffer (pH 6.8, containing 1 mM dithiothreitol and 0.5 mM EDTA) and the experiment wherein the solution of the compounds of the present invention was also substituted for a 0.1M potassium sodium phosphate buffer (pH 7.0). Each fluorescence (a2 and a3) was also determined respectively [See Tanpakushitsu Kakusan Koso, 29, 127 (1984)]. The prolyl endopeptidase-inhibition rate was calculated by the following formula, and IC50, a concentration of a compound producing 50% inhibition, was estimated by semilogarithmic graph paper. [formula]

The target of test [2] is T2, trypsin (Bos taurus, UniProt P00760).
T2 construct: purchased Sigma; host or cells: bovine pancreas
T2 sequence (P00760 24-246): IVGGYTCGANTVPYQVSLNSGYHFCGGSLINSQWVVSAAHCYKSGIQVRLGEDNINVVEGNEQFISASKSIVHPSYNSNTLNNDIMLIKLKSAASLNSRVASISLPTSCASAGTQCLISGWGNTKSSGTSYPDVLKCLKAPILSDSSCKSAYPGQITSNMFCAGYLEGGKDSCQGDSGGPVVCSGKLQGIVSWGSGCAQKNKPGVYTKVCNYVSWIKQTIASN
The experiment in a line: Trypsin-Inhibitory Activity. The class given is biochemical, bovine. As to conditions: read-out: Inhibition rate, trypsin; for inhibition at 1 µM: 1 × 10^-6 M. As to the method: In the present invention, a 50 mM Tris-HCl buffer (pH 8.0) was employed as a buffer for measurement.
To a mixture of the above-mentioned buffer (850 μl), a solution of the compounds of the present invention in the same buffer (50 μl) and a 0.02 μM solution of trypsin (derived from bovine pancreas, Sigma) in the same buffer (50 μl) was added a 200 μM solution of 7-(prolyl-phenylaranyl-arginyl)-4-methylcoumarinamide (Peptide Institute, Inc.) in the same buffer (50 μl), and the mixture was incubated at 30° C. for 1 hour. The reaction mixture was immersed in ice (0° C.) to terminate the reaction, and the fluorescence (b1) was determined 1 hour later (excitation at 370 nm and emission at 440 nm). Concurrently, there were conducted the experiment wherein, in the system above, the trypsin solution was substituted for a buffer alone, and the experiment wherein the solution of the compounds of the present invention was also substituted for a buffer above. Each fluorescence (b2 and b3) was also determined respectively.
(§1) Using the fluorescence x1, x2 and x3 measured in the above-mentioned manner, the inhibitory rate against various proteases was calculated by the following formula where x stands for b, c, d, e or f: [formula]

Test [3] has as its target T3, chymotrypsin (Bos taurus, UniProt P00766).
T3 construct: purchased Sigma; host or cells: bovine pancreas
Briefly: Chymotrypsin-Inhibitory Activity. Type of test: biochemical, bovine. As to conditions: read-out: Inhibition rate, chymotrypsin; for inhibition at 1 µM: 1 × 10^-6 M. As to the method:
Similarly, by following the procedure mentioned above, but employing a 50 mM Tris-HCl buffer (pH 8.0) as a buffer for measurement, a 0.2 μM solution of chymotrypsin (derived from bovine pancrease, Sigma) in the same buffer as an enzyme solution and a 200 μM solution of 7-(N-succinyl-leucyl-leucyl-valyl-tyrosyl)-4-methylcoumarinamide (Peptide Institute, Inc.) in the same buffer as a substrate solution. Each fluorescence (c1, c2 and c3) was also determined, respectively.
as §1

Test [4] deals with leucine aminopeptidase. The experiment in a line: Leucine Aminopeptidase-Inhibitory Activity. The class given is biochemical, swine. As to the method: Similarly, by following the procedure mentioned above, but employing a 50 mM Tris-HCl buffer (pH 8.0) as a buffer for measurement, a 0.2 μM solution of leucine aminopeptidase (derived from swine kidney, Sigma) in the same buffer as an enzyme solution and a 200 μM solution of 7-(leucyl-4-methylcoumarinamide (Peptide Institute, Inc.) in the same buffer as a substrate solution. Each fluorescence (d1, d2 and d3) was also determined, respectively.
as §1

Test [5] has as its target T4, elastase (Sus scrofa, UniProt P00772).
T4 construct: purchased Sigma; host or cells: swine pancreas
The experiment in a line: Elastase-Inhibitory Activity. The class given is biochemical, swine. As to conditions: read-out: Inhibition rate, elastase; for inhibition at 1 µM: 1 × 10^-6 M. As to the method:
Similarly, by following the procedure mentioned above, but employing a 1 mM Tris-HCl buffer (pH 8.5) as a buffer for measurement, a 0.2 μM solution of elastase (derived from swine pancreas, Sigma) in the same buffer as an enzyme solution and a 200 μM solution of 7-(N-succinyl-aranyl-prolyl-aranyl)-4-methylcoumarinamide (Peptide Institute, Inc.) in the same buffer as a substrate solution. Each fluorescence (e1, e2 and e3) was also determined, respectively.
as §1

In test [6] the target is T5, cathepsin B (Bos taurus, UniProt P07688).
T5 construct: purchased Sigma; host or cells: bovine spleen
The experiment in a line: Cathepsin B-Inhibitory Activity. The class given is biochemical, bovine. The following applies: read-out: Inhibition rate, cathepsin B; for inhibition at 1 µM: 1 × 10^-6 M. How it is done: Similarly, by following the procedure mentioned above, but employing a 100 mM sodium phosphate buffer (pH 6.0; containing 1.33 mM EDTA Na2) as a buffer for measurement, a 0.02 μM solution of cathepsin B (derived from bovine spleen, Sigma) in the same buffer as an enzyme solution and a 200 μM solution of 7-(N-benzyloxycarbonyl-phenylaranyl-arginyl)-4-methylcoumarinamide (Peptide Institute, Inc.) in the same buffer as a substrate solution. Each fluorescence (f1, f2 and f3) was also determined, respectively.
as §1

Where [7] appears, read: read-out: Inhibition rate, prolyl endopeptidase.

SMILES strings stand for the structures.

The record followed here is patent publication US5118811A, “Amino acid derivatives possessing prolyl endopeptidase-inhibitory activities” (Japan Tobacco Inc., priority 1989, dated 1992).

What is called inhibition is the percentage by which the read-out fell short of the control. What is called IC50 is the midpoint of a concentration-inhibition curve. The low end stands for inhibition by little substance, the high end for a need for much substance.

T1 sequence (O70196 whole entry): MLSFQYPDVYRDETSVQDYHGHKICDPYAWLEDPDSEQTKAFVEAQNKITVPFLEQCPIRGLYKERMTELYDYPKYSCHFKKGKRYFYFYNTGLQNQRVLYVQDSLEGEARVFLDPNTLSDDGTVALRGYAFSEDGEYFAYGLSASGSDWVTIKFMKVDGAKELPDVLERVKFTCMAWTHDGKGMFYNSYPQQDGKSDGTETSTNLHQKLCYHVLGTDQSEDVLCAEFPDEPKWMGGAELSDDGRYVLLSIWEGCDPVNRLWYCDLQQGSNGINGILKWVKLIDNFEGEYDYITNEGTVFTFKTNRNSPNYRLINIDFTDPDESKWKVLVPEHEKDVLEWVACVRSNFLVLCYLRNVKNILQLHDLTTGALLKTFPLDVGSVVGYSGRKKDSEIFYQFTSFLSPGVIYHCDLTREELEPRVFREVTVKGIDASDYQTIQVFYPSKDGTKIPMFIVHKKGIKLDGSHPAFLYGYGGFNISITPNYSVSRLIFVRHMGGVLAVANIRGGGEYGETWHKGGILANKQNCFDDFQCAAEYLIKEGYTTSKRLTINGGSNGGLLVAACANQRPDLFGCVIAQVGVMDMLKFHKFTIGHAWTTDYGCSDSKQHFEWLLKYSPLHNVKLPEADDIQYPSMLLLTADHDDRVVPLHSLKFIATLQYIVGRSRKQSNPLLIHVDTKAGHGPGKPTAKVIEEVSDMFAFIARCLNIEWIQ
T4 sequence (P00772 27-266): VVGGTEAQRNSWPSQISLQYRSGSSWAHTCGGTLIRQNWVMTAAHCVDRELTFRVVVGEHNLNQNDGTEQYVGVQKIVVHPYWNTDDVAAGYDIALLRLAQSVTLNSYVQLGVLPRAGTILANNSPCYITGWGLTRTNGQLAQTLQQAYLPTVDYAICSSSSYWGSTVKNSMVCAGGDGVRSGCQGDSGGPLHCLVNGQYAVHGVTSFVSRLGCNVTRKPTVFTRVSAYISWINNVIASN

As for `N#C[C@@H]1CCCN1C(=O)[C@@H]1CCCN1C(=O)OCc1ccccc1` [Compound 19, (2S)-1-(N-Benzyloxycarbonyl-L-prolyl)-2-cyanopyrrolidine], the inhibition at 0.01 µM in test [1] (1 × 10^-8 M, read-out: Inhibition rate, prolyl endopeptidase) was 100%; in test [2] (1 × 10^-8 M), 0%; in test [3] (1 × 10^-8 M) it was 0%; in test [5] (1 × 10^-8 M) it was 0%; in test [6] (1 × 10^-8 M) it was 0%. Also, the IC50 in test [1] is 0.35 nM. Further, the “Inhibition rate, leucine aminopeptidase” value in test [4] (1 × 10^-8 M) was determined as 0%.

As to `CC(=O)ON=C[C@@H]1CCCN1C(=O)CCC(=O)NCc1ccc(Cl)cc1` [Compound 21, (2S)-1-[4-Oxo-4-(4-chlorobenzylamino)butanoyl]-2-pyrrolidinecarboxaldehyde O-acetyloxime], the inhibition at 1 µM in test [1] (setting [7]) stood at 100%; in test [2] it was 10%; in test [3], 0%; in test [5] it was 0%; in test [6], 0%. Further, 40 nM corresponded to half-maximal inhibition in test [1] (IC50). Besides, the “Inhibition rate, leucine aminopeptidase” value in test [4] (1 × 10^-6 M) is on record as 0%.

As to `N#C[C@@H]1CCCN1C(=O)CCC(=O)NCc1ccc(Cl)cc1` [Compound 22, (2S)-1-[4-Oxo-4-(4-chlorobenzylamino)butanoyl]-2-cyanopyrrolidine], the inhibition at 1 µM came to 100% in test [1] (setting [7]); 0% in test [2]; 0% in test [3]; 0% in test [5]; 0% in test [6]. The compound also displayed an IC50 in test [1] of 10 nM. Further, the “Inhibition rate, leucine aminopeptidase” value in test [4] (1 × 10^-6 M) is reported as 0%.
